The values below come from patent US20130317092A1 (priority 2007, published 2013).

One data set deals with AChE-S mRNA. The data set can be described thus: AChE-S mRNA by QRT-PCR in transfected primary human macrophages. Format: cell-based. The following applies: primary human macrophages transfected with LNA-modified oligo. The protocol: (§1) Primary human macrophages obtained from donors using methods which are well known in the art.
(§2) anti132 is set forth in CG+ACC+ATG+GCT+GTA+GAC+TGT+TA (SEQ ID NO: 109), anti182 is set forth in 5′T+AgT+Tgg+CAA+gTC+TAg+AAC+CA3′(SEQ ID NO: 110), whereby LNA modification is marked as + before the modified nucleotide.
(§3) RT was performed using SuperScript III kit reagents (Invitrogen) as per kit instructions, and ABI-7900HT (Applied Biosystems) equipped with dedicated software (ver. 2) was used to amplify the resulting cDNA template (SYBR Green I RNA amplification kit, Roche). Triplicate values of each treatment were normalized to β-actin mRNA.

Data set [1] relates to Inducible Nitric Oxide Synthetase (iNOS). Description: iNOS by QRT-PCR in transfected primary human macrophages. Format: cell-based. The conditions noted are these: primary human macrophages transfected with LNA-modified oligo. As to the method: as §1, §3
A further data set concerns macrophage miRNAs. Description: Spotted microarray miRNA profile of primary human macrophages. Format: cell-based. The text has this:
Macrophages were isolated from buffy coats from healthy donors, underwent pooling that elicited mixed leukocyte response (MLR) and subjected in vitro to several distinct agents or combinations thereof, some known to elicit macrophage activation (listed in Table 2, hereinbelow).
The mirVana (Ambion, Austin, Tex.) oligonucleotide set was used to construct the in-house array. The microarray carried 200 spotted probes complementary to known human and mouse miRNAs. To compose the array, the mirVana probeset was dissolved in 3×SSC to a final concentration of […], and printed on Ultragaps slides (Corning, Corning, N.Y.), using the MicroGrid spotter (Genomic Solutions, Holliston, Mass.). The array layout contained 12 subgrids, each composed of 11 rows and 12 columns. Each oligonucleotide was spotted 6 times on the array. The experiments were designed for comparison of two samples. Data was therefore always relative rather than absolute. In these experiments, a “reference design” (Churchill, 2002, Nature genetics, 32, 490-495) was used, in which RNA from cells or tissues is compared. In addition, dye-swapping tests were performed, aimed to exclude dye-specific labeling differences (Dombkowski et al., 2004, FEBS Lett, 560, 120-124). Labeling was performed using the CyDye reactive dye pack (Amersham, NSW, Australia), as instructed. Pre-hybridization was in pre-heated S×SSC, 1% BSA, 0.1% SDS solution, at 42° C. for 45 min. Cy3 and Cy5-labeled fragmented RNA (3 ug each) were added to the hybridization solution (3×SSC, 0.1% SDS, 10 μg polyA, 20 μg tRNA), heated at 95° C. for 4 minutes for eliminating secondary structures and applied to the slides in hybridization chambers (Corning, N.Y., USA) for 15 h at 64° C. Hybridized slides were successively washed in: 1×SSC, 0.1% SDS (5 min); 0.1×SSC, 0.1% SDS (5 min) and 0.1×SSC (3×1.5 min) and were dried by centrifugation (˜1000 g).
This was adapted from (Ben-Ari S, et al., J. Neurochem. 2006 April; 97 Suppl 1:24-34.) Briefly, an Affymetrix 428 Array Scanner was used at the maximum gain setting, at the wavelengths of 532 nm and 650 nm Scans were controlled by the “Jaguar” software (Affymetrix, Calif., USA), saved as TIFF files and exported to the “Imagene” program (Biodiscovery Inc, CA, USA) to define the spots, convert the intensity signals into numbers and calculate quality parameters such as “shape regularity”, “empty spot” etc. Data normalization, exclusion of unreliable spots and combining the information from all 4 slides were performed in an in-house Matlab program. First, median background was subtracted from the median signal intensity, to normalize background noises. Background area was defined as a circle of 5 pixels diameter separated from the signal area by 4 pixels. […]. Spot quality was examined according to pre-defined Imagene's parameters, standard deviation of pixels intensity in each spot etc. Spots with intensities below the threshold derived from the negative control spots or with saturated pixel values were excluded. The Cy3 and Cy5 signal intensities of each spot were normalized to the mean Cy3 and Cy5 intensities in the slide. For each spot, an initial Cy3/Cy5 ratio has been calculated, and was transformed to a log 2 basis. This value was designated LR (log 2 ratio). […]. Then, results from all valid spots (up to 6) representing the same oligonucleotide were combined. Probes with less than 3 valid spots were excluded, and median and mean LR were calculated.
Covariance between treatments was calculated in OpenOffice 1.1 for Mac OS X, using the entire miRNA collection represented on the chip (for signals that failed the MatLab analysis, a Median LR value of 0 was assigned).
The mirVana oligo set (Ambion, Austin, Tex.; Catalog number 1564V1) was used to construct our in-house array with >200 spotted probes complementary to known human and mouse miRs. […]

The next data set relates to ASF/SF2. Description: Splicing factor ASF/SF2 in human PBMC (real-time RT-PCR). It counts as cell-based.
The next data set has as its system AChmiRNA. The data set can be described thus: AChmiRNA expression in human PBMC (quantitative RT-PCR). Format: cell-based.
A further data set concerns BDP1. Description: BDP1 transcript in human PBMC (real-time RT-PCR). Format: cell-based.
For another data set, the system named is CD54 and CD40. The conditions noted are these: cited from earlier work.
For another data set, the system named is TBP. The data set can be described thus: TBP transcript in human PBMC (real-time RT-PCR). Format: cell-based.
Data set [2] has as its system 3′UTR fragment of human AChE cDNA. The data set can be described thus: Dot blot hybridization of LNA-modified oligos with PCR-amplified AChE 3′UTR. The conditions noted are these: 5′-32P-labeled LNA-modified oligos. Format: binding. As to the method: The common AChE 3′-UTR sequence was obtained from AY750146 (all mRNA sequence beginning from stop codon). 3′-UTR of AChE was amplified by RT-PCR using Promega reagents and total RNA isolated with QIAGEN RNeasy kit from post-mortem human brain, with primers including XhoI, NotI restriction sites in 5′ and 3′ primer, respectively. Primer sequences used were: (5′): […], (3′) (SEQ ID NO: 111): […] (SEQ ID NO: 112). Annealing temperature of 57° C. was used. PCR product was purified with QIAGEN QiaQuick kit, size of fragment verified in agarose gel, spotted on a dry HyBond nylon membrane in 2 ul drops, cross-linked to the membrane using 1200 mJ UV burst, and baked for 1 hr at 80° C. Membrane was blocked for at least 2 hours in solution containing 50% deionized formamide, 5×SSPE, 0.5% SDS, 5×Denhardt's Solution at 50° C.; and hybridized o/night in same conditions with 5′-32P-labeled probes mimicking miRs wholly or with mismatches as indicated, washed 4 times at 37° C. in 3×SSPE, 5% SDS, 10×Denhardt's solution; once at 42° C. in 1×SSPE, 1% SDS; exposed over up to 3 days to a PhosphorImager (Molecular Dynamics/GE Healthcare) plate, and signal quantified using FujiFilm's ImageGauge 4 software.

The next data set concerns RAW 264.7 cells. Description: NO production of LPS-challenged RAW 264.7 cells transfected with miR mimics. Format: cell-based, murine. The protocol:
Murine RAW 264.7 macrophage-derived cell line known to express TLR4 and respond to endotoxin by production of pro-inflammatory mediators such as Nitric Oxide (NO), prostaglandins, and cytokines as ILE IL6, and TNFalpha were used (described in the preceding examples e.g., Examples 7 and 8). Cells were grown in 5 ml flasks in a humidified atmosphere in Dulbecco's modified Eagle's medium (DMEM, Biological Industries) supplemented with 10% fetal calf serum (FCS) and 2 mM L-glutamine at 37° C., 5% CO2.
Griess method was used to determine NO2 levels in medium in which macrophages had been cultured. 100 μl of each sample+100 μl of Griess reagent (1% sulfanilamide/0.1% naphthylethylenediamine dihydrochloride/2.5% H3PO4)—were incubated 10-20 min at room temperature. Read absorbance at 546 nm in micro-ELISA reader.
miR 132 and 182* (SEQ ID NOs: 54 and 93, respectively) were LNA modified (products are designated with SEQ ID NOs. 107 and 108, respectively). A locked nucleic acid (LNA), often referred to as inaccessible RNA, is a modified RNA. Ribose moiety of LNA nucleotide is modified with an extra bridge connecting 2′ and 4′ carbons. The bridge “locks” the ribose in 3′-endo structural conformation, which is often found in A-form of DNA or RNA. LNA nucleotides can be mixed with DNA or RNA bases in the oligonucleotide whenever desired. The locked ribose conformation enhances base stacking and backbone pre-organization.
electroporation and lipofection were used for cell transfection.
Oligos containing LNA modifications on every third base (Table 4) were obtained from Sigma-Proligo. Transfection was performed with Lipofectamine 2000 (Invitrogen, Carlsbad, Calif.) using 3 μg of oligo per sample. Briefly, cells were brought to 80%-90% confluence at the time of transfection. For each transfection sample, 3 μg oligo were diluted in 1 ml of RPMI-1640 while the lipofectamine reagent was diluted in 1 ml of RPMI-1640. After 5 minutes the diluted oligo and lipofectamine were combined and incubated for 20 minutes. This was added to the cells within the 75 ml flask, containing 6 ml RPMI complete+GM-CSF ([…] final oligo concentration). […]
To determine cell viability 40 μl of thiazolyl blue tetrazolium bromide (MTT) reagent (Sigma) at 5 mg/ml was added per sample well, incubated for 30 minutes at 37° C. Medium was removed, 400 μl of DMSO was added per well and absorbance read at 550 nm Griess method was used to determine NO2 levels in conditioned medium from macrophage cultures. […] Absorbance was read at 546 nm in a micro-ELISA reader. TNF-α, IL-6 levels were measured by Enzyme-Linked Immunosorbent Assay (ELISA) according to manufacturer's procedures (R&D Systems kits, MTA00, M6000B, respectively). All absorbance results were normalized using standard curves. […]

The test system of a further data set is AChE-R mRNA. The data set can be described thus: AChE-R mRNA by QRT-PCR in transfected primary human macrophages. The conditions noted are these: primary human macrophages transfected with LNA-modified oligo. Format: cell-based. The protocol:
as §1, §2, §3

Turning to “anti-132: LNA-modified reverse-complementary oligo CG+ACC+ATG+GCT+GTA+GAC+TGT+TA (CGACCATGGCTGTAGACTGTTA; LNA at 3, 6, 9, 12, 15, 18, 21, other sugars and backbone not given here)”, the “AChE-S mRNA levels” value in the data set on AChE-S mRNA is reported as “increase in mRNA levels, albeit of the AChE-S variant alone”. Also, the iNOS expression entry in [1] was “up-regulation of Inducible Nitric Oxide Synthetase (iNOS)”.

For CpG ODN 2006, the “similarity of effects on the miRNA profile (covariance)” value in the data set on macrophage miRNAs was “invoke the closest effects on the miRNA profile”. Moreover, the “miR-132 expression (spotted microarray)” value in the data set on macrophage miRNAs (24 h, 1 μg/ml LPS or ODN 2006 1 uM) is reported as “consistently being up-regulated”. Also, the “extent of change in miRNA expression (miRNAs beyond median LR=0.25)” value in the data set on macrophage miRNAs (LPS 1 μg/ml, CpG 1 μM, EN101 1 μM) is “caused the greatest change”. For the same substance, in the data set on macrophage miRNAs (spotted array), the miR-17-5p expression entry is “down-regulated by CpG alone”; the “miR-30a-3p and miR-372 expression” value is given as “consistently down-regulated”; the miRNAs down-regulated result was “miR-9-1*, 26a-1, 27a, 33, 93, 140, 145, 185, 221, and 298”; the miRNAs up-regulated result was “miR-183, 292-3p, 302c, 361, and 381”. Further, the “splicing factor ASF/SF2 levels” value with ASF/SF2 is on record as “reduced levels”. Also, in the data set with AChmiRNA, the AChmiRNA expression result is “suppressed”. Further, in the data set with BDP1, the BDP1 transcript entry is given as “suppressed”. The “expression of CD54 and CD40” value in the data set on CD54 and CD40 is “enhanced expression of CD54 and CD40”. The TBP transcript entry with TBP is “suppressed”.

As for “miR-132 mimic: LNA-modified oligo mimicking miR-132: TA+ACA+GTC+TAC+AGC+CAT+GGT+CG (TAACAGTCTACAGCCATGGTCG; LNA at 3, 6, 9, 12, 15, 18, 21, other sugars and backbone not given here)”, the “AChE-S mRNA levels” value in the data set with AChE-S mRNA is on record as “dramatic decline”. Besides, in [2], the “binding to PCR-amplified AChE 3′UTR (dot blot signal)” value was “significant binding to 20 ng doses of PCR product”. Further, in the data set on RAW 264.7 cells (LPS-exposed RAW-264.7 cells transfected with oligo (Example 13)), the “activation of macrophage cell lines by LPS (NO production) after transfection” value is “significantly attenuate the activation of macrophage cell lines by LPS”. In the data set with RAW 264.7 cells (RAW 264.7 cells transfected or electroporated, then endotoxin challenge (Example 11)), the “endotoxin response (NO production) after transfection” value is “significantly attenuate endotoxin response”. For the same substance, the “AChE-R mRNA levels” value in the data set with AChE-R mRNA is reported as “dramatic decline”.
